The text below walks through data of ChEMBL document CHEMBL5291721, “A preclinical secondary pharmacology resource illuminates target-adverse drug reaction associations of marketed drugs” (Nat Commun, 2023).

Each structure is given as a SMILES string.

The target of assay [1] is Histamine H2 receptor (Homo sapiens, UniProt P25021). The format is functional, cell-based.
The target in assay [2] is T1, Thromboxane A2 receptor (Homo sapiens, UniProt P21731).
T1 sequence (P21731 whole entry): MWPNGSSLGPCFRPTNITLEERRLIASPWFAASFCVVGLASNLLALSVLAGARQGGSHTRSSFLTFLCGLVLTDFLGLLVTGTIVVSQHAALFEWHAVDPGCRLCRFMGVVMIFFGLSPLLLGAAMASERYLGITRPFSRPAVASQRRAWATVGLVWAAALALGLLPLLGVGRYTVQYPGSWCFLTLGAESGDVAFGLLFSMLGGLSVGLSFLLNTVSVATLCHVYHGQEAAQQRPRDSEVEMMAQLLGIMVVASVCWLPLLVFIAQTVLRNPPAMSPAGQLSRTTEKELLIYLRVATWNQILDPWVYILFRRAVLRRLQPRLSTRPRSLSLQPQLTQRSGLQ

The target in assay [3] is T2, Glucocorticoid receptor (Homo sapiens, UniProt P04150).
T2 sequence (P04150 whole entry): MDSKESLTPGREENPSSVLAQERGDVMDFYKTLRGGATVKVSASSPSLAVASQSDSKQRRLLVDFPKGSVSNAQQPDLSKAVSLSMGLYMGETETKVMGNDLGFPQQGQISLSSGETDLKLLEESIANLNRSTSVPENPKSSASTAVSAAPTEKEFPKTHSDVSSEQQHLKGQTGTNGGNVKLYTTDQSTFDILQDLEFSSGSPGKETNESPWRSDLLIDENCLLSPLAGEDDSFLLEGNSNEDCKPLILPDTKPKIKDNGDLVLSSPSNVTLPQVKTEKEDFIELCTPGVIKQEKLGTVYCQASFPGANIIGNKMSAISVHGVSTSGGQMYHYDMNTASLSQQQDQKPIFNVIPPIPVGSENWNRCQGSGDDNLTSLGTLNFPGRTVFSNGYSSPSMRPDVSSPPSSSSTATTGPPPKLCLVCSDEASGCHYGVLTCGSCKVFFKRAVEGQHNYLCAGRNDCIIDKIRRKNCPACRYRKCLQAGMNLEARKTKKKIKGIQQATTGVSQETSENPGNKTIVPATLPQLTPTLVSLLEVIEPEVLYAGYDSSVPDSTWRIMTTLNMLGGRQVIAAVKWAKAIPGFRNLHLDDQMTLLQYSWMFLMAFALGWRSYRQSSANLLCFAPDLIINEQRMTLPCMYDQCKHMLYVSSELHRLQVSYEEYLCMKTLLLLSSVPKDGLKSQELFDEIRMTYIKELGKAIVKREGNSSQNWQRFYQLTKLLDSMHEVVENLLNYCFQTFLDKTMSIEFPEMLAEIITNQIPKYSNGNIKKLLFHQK

The target in assay [4] is Histamine H3 receptor (Homo sapiens, UniProt Q9Y5N1).
The target in assay [5] is T3, 5-hydroxytryptamine receptor 2C (Homo sapiens, UniProt P28335).
T3 sequence (P28335 whole entry): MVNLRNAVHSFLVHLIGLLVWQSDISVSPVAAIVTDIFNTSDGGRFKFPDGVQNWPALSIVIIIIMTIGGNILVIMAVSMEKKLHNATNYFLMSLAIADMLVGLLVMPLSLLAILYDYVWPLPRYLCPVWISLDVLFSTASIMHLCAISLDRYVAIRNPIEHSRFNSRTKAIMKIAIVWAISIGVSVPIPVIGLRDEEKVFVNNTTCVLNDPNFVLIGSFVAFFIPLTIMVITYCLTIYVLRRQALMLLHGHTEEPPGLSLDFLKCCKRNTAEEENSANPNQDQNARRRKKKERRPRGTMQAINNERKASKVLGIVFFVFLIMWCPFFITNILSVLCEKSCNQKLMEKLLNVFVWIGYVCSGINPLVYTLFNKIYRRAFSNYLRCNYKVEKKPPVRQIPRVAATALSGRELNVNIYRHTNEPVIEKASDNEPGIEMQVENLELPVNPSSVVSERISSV

Assay [6] concerns the target Sodium-dependent noradrenaline transporter (Homo sapiens, UniProt P23975).
The target in assay [7] is D(3) dopamine receptor (Homo sapiens, UniProt P35462).
Assay [8] deals with Sodium-dependent dopamine transporter (Homo sapiens, UniProt Q01959).
Assay [9] has as its target Delta-type opioid receptor (Homo sapiens, UniProt P41143).
For assay [10], the target named is T4, Progesterone receptor (Homo sapiens, UniProt P06401).
T4 sequence (P06401 whole entry): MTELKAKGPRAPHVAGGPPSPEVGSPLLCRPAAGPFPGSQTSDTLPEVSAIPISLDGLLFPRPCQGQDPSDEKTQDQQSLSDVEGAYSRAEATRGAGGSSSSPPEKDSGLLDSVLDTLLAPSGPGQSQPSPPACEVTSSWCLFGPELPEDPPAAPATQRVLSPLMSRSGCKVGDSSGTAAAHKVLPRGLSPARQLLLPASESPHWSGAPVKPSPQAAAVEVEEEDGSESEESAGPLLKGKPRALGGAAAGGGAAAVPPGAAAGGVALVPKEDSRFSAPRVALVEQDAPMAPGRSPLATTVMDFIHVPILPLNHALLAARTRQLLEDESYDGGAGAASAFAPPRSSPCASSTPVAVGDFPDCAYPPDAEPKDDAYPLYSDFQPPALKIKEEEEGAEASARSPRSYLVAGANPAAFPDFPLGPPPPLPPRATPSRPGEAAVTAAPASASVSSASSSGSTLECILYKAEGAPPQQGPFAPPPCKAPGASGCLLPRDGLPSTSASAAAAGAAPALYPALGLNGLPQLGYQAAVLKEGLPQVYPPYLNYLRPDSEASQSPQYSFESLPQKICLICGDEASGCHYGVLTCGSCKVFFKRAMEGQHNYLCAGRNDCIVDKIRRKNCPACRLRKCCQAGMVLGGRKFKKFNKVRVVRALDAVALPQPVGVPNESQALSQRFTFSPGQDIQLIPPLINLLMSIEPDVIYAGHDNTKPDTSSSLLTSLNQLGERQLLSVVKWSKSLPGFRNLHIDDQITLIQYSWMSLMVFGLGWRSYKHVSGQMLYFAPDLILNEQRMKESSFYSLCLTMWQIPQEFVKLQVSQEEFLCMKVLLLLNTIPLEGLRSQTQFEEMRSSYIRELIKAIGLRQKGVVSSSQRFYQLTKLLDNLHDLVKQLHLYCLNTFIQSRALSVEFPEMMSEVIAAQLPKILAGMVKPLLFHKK
Type of assay: functional.

For assay [11], the target named is Histamine H1 receptor (Homo sapiens, UniProt P35367).
Note: assay procedure not described here.

Sequence of Delta-type opioid receptor (P41143 whole entry): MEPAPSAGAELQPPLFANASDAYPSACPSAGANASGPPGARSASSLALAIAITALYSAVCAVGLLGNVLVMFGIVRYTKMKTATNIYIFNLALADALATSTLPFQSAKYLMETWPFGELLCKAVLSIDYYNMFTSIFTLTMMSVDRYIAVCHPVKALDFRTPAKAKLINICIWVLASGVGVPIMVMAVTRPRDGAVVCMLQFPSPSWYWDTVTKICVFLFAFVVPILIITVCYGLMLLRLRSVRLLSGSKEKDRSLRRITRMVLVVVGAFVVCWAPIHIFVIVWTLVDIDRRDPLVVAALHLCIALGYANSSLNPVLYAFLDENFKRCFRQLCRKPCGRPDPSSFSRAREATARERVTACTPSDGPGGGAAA
Sequence of Histamine H3 receptor (Q9Y5N1 whole entry): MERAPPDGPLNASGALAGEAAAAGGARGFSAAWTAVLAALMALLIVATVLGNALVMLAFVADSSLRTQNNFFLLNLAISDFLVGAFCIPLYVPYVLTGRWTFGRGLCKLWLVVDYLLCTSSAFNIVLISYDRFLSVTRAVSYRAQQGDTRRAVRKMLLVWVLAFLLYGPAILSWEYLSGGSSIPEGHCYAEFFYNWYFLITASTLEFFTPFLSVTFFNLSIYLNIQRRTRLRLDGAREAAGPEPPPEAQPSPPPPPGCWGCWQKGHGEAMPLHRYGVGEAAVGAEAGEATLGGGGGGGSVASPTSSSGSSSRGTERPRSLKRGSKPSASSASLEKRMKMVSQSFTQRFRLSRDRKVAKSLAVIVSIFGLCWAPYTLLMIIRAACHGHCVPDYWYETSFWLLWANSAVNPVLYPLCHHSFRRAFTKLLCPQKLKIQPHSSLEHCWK
Sequence of Histamine H2 receptor (P25021 whole entry): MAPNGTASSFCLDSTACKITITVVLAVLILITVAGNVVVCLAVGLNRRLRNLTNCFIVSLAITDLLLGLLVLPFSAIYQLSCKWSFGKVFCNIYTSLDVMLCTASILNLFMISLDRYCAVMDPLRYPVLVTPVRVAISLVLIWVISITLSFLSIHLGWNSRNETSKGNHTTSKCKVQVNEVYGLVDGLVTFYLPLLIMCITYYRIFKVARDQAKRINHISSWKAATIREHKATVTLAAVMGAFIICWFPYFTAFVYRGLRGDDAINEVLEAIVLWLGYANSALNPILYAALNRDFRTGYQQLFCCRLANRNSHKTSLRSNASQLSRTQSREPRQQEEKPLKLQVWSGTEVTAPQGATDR
Sequence of Sodium-dependent dopamine transporter (Q01959 whole entry): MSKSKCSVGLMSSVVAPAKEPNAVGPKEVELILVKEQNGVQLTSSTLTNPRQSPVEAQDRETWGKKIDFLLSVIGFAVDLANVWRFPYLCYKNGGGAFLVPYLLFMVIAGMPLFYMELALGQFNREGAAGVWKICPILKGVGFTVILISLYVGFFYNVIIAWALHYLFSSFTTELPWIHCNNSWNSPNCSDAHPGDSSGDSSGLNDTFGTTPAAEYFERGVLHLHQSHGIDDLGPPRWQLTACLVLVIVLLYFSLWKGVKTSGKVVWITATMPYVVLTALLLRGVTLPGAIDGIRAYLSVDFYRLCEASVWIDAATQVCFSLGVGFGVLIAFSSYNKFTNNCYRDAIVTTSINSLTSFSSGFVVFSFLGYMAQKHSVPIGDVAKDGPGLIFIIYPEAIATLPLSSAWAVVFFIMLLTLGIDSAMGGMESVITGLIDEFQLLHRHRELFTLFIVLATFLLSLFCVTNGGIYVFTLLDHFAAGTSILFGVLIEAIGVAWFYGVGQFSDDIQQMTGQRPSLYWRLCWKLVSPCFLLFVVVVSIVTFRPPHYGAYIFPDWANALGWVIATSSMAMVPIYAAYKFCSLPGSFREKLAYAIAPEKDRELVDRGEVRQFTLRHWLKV
Sequence of D(3) dopamine receptor (P35462 whole entry): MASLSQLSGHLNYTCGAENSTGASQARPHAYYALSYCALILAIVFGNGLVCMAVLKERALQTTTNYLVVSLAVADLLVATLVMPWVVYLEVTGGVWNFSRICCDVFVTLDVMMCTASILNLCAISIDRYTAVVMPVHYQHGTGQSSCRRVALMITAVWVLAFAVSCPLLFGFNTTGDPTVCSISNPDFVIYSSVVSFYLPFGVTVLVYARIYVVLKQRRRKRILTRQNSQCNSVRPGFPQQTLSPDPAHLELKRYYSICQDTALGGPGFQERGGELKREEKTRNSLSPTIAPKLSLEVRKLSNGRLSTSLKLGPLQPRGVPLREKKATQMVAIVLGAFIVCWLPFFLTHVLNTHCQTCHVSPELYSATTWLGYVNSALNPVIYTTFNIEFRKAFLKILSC
Sequence of Sodium-dependent noradrenaline transporter (P23975 whole entry): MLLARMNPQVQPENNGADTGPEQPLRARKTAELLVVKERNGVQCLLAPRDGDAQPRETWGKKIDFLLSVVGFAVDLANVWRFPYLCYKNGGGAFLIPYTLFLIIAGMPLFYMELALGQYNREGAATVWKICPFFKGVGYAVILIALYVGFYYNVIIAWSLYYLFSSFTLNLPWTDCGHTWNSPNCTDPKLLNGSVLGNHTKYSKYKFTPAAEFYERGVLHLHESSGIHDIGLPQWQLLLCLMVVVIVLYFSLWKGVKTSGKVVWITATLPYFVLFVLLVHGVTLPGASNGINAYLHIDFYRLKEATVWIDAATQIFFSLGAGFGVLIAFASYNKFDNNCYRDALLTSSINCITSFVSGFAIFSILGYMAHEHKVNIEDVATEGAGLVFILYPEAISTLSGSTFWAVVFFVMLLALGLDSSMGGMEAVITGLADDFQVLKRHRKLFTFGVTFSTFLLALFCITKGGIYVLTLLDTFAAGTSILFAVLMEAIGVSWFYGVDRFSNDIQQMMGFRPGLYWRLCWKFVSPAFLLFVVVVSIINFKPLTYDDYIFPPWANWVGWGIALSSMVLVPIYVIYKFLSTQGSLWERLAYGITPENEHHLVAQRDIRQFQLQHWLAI
Sequence of Histamine H1 receptor (P35367 whole entry): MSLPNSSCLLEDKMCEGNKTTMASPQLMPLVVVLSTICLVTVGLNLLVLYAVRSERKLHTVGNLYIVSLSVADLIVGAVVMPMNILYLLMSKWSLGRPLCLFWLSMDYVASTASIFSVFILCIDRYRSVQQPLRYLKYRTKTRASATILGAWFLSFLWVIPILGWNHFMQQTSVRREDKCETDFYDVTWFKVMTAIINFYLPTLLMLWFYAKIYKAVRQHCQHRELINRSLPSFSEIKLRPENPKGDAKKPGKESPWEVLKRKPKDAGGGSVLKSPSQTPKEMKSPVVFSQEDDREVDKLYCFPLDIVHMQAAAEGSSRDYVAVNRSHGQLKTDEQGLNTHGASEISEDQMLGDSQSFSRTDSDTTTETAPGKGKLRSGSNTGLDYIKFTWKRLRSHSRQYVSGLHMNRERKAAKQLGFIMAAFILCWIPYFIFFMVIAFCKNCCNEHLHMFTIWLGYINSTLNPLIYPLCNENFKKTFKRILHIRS

Regarding `CC(C)CN(C[C@@H](O)[C@H](Cc1ccccc1)NC(=O)O[C@H]1CCOC1)S(=O)(=O)c1ccc(N)cc1`, the AC50 (as a rule, the concentration giving half of the maximal activity seen) in assay [1] was > 10 µM; in assay [2], > 30 µM; in assay [3], > 10 µM; in assay [4], > 10 µM; in [5] it was > 30 µM; in [6] it was > 10 µM. Moreover, the AC50 was > 30 µM in assay [7], > 10 µM in [8], > 30 µM in [9] and > 10 µM in assay [10].

With `CNCCc1ccccn1` [BETAHISTINE], the AC50 in [1] is > 30 µM; in assay [2], > 30 µM; in assay [3], > 30 µM; in [4] it was 11 µM; in assay [5], > 30 µM; in assay [6], > 30 µM. Moreover, the AC50 in assay [7], in assay [8], in assay [9] and in assay [10] was > 30 µM each time.

For `O=C(O)CCCC[C@@H]1SC[C@@H]2NC(=O)N[C@@H]21` [BIOTIN], the AC50 in [1] was > 10 µM; in assay [11], > 10 µM; in assay [2], > 10 µM; in [3] it was > 10 µM; in [5], > 30 µM; in assay [6] it was > 10 µM. Further, the AC50 in assay [7] was > 30 µM; in assay [8], > 10 µM; in assay [9], > 30 µM.

With `CCCCOC(=O)c1ccc(N)cc1` [BUTAMBEN], the AC50 in assay [1], in assay [2], in assay [3], in assay [4], in [5] and in assay [6] was > 30 µM in each case. The AC50 in [7], in assay [8], in assay [9] and in assay [10] was > 30 µM throughout.

Take `CN(Cc1ccc(C(C)(C)C)cc1)Cc1cccc2ccccc12` [BUTENAFINE]: the AC50 in assay [1] is > 10 µM; in assay [2], > 10 µM; in [3], > 30 µM; in assay [4], > 10 µM; in assay [5], > 30 µM; in assay [6] it was > 10 µM. Also, the AC50 in assay [7] was > 30 µM; in assay [8], > 10 µM; in [9], > 30 µM; in [10], > 30 µM.

Regarding `CCc1ccc(C(=O)C(C)CN2CCCCC2)cc1` (stereo not given) [EPERISONE], the AC50 was > 30 µM in [1]; > 30 µM in [2]; > 30 µM in assay [3]; 1.3 µM in assay [4]; > 30 µM in [5]; > 30 µM in assay [6]. The AC50 in [7] is 9.4 µM; in assay [8] it was > 30 µM; in assay [9], 19 µM; in assay [10] it was > 30 µM.

As to `CCC1(C)CC(=O)NC1=O` (stereo not given) [ETHOSUXIMIDE], the AC50 was > 30 µM in assay [1]; > 10 µM in assay [2]; > 10 µM in [3]; > 30 µM in assay [5]; > 10 µM in [6]; > 30 µM in assay [7]. Also, the values for the AC50 in [8], in assay [9] and in [10] were > 10 µM, > 30 µM and > 10 µM, respectively.

Turning to `CC(=O)[C@@]1(O)CC[C@H]2[C@@H]3C[C@H](C)C4=CC(=O)C=C[C@]4(C)[C@@]3(F)[C@@H](O)C[C@@]21C` [FLUOROMETHOLONE], the AC50 is > 10 µM in [1]; > 10 µM in assay [2]; 0.004 µM in assay [3]; > 10 µM in assay [4]; > 30 µM in assay [5]; > 10 µM in assay [6]. Also, the AC50 in [7] was > 30 µM; in assay [8], > 10 µM; in assay [9], > 30 µM; in [10], 0.053 µM.

For `CC(=O)N1CCN(c2ccc(OCC3COC(Cn4ccnc4)(c4ccc(Cl)cc4Cl)O3)cc2)CC1` (stereo not given) [KETOCONAZOLE], the AC50 in assay [1] is > 10 µM; in assay [2], > 10 µM; in assay [3] it was > 10 µM; in assay [4] it was > 10 µM; in assay [5], > 30 µM; in assay [6] it was > 30 µM. Also, the AC50 in assay [7] was > 30 µM; in assay [8], > 30 µM; in assay [9] it was > 10 µM; in [10], > 10 µM.

`CN1CCC(=C2c3ccccc3CC(=O)c3sccc32)CC1` [KETOTIFEN]: the AC50 was > 10 µM in assay [1]; > 10 µM in assay [2]; > 10 µM in [3]; 2.3 µM in [5]; > 10 µM in assay [6]; 3 µM in [7]. Further, the AC50 in [8] was > 10 µM; in [9], > 30 µM; in assay [10] it was > 10 µM.

On to `COc1nc(C)nc(Cl)c1N=C1NCCN1` [MOXONIDINE], for which the AC50 in assay [1] is 16 µM; in assay [2], > 30 µM; in assay [3], > 30 µM; in [4] it was > 30 µM; in assay [5], > 30 µM; in assay [7], > 30 µM. Besides, the AC50 in [8], in assay [9] and in [10] was > 30 µM in each case.

On to `CC(C)(C)NCC(O)COc1cccc2c1CC(O)C(O)C2` (stereo not given) [NADOLOL], for which the AC50 in assay [1] was > 10 µM; in assay [2], > 10 µM; in assay [3], > 10 µM; in assay [4] it was > 10 µM; in assay [5] it was > 30 µM; in [6], > 10 µM. Also, the AC50 is > 30 µM in [7], > 10 µM in [8], > 30 µM in assay [9] and > 10 µM in assay [10].

`Cc1cccc(Nc2ccncc2S(=O)(=O)NC(=O)NC(C)C)c1` [TORSEMIDE]: the AC50 is > 10 µM in assay [1]; 20.8 µM in assay [2]; > 10 µM in [3]; > 30 µM in [5]; > 10 µM in assay [6]; > 30 µM in [7]. The AC50 is > 10 µM in [8], > 30 µM in [9] and > 10 µM in assay [10].
